Laboratory results reported in publication PMC6006164, “Natural cyclopeptide RA-V inhibits the NF-κB signaling pathway by targeting TAK1” (Cell Death & Disease, 2018).

What was measured:
HEK293T and HeLa cells = assay: MTT assay; type: cell-based; details: under reporter-assay treatment, high concentrations
Description: Fig. 1 RA-V inhibits TNF-α- and LPS-induced activation of NF-κB. a Chemical structure of RA-V. b RA-V inhibited the NF-κB signaling pathway in a dose-dependent manner. HEK293T or HeLa cells were transfected with the 5 × κB-luciferase and pTK-Renilla reporters. Twenty-four hours after transfection, the cells were incubated with various concentrations of RA-V for 6 h, and then treated with 10 ng/mL TNF-α for 2 h before the luciferase activity assay and MTT assay. c RA-V reduced TNF-α-induced expression of NF-κB target genes. HEK293T or HeLa cells were treated with various concentrations of RA-V for 24 h and stimulated with 10 ng/mL TNF-α for 2 h. The expression of the NF-κB target genes, IL-8, MCP-1, and E-selectin was measured by quantitative RT-PCR and normalized to GADPH expression. d RA-V inhibited TNF-α-induced p65 phosphorylation, IκBα phosphorylation and IκBα degradation. […] The expression of IL-6 was measured. h RA-V inhibited LPS-induced p65 phosphorylation, IκBα phosphorylation. […] The protein expression was measured. i RA-V inhibited LPS-induced IL-6 production. […] The expression of IL-6 was measured.
HEK293T cells (5 × 10^3 cells/well) or HeLa cells (3 × 10^3 cells/well) were seeded in a 96-well plate with 100 μL medium and cultured for 12 h in a CO2 incubator. […] After 4 h, the medium was replaced with 150 μL DMSO, and the optical density was measured at […] (Molecular Devices). […]

TAK1–TRAF6 interaction = molecular target: T1, TAK1–TRAF6 interaction (Homo sapiens, UniProt O43318); assay: Co-immunoprecipitation of TAK1 and TRAF6; type: cell-based; details: HEK293T, Flag-TAK1 and HA-TRAF6; RA-V 800 nM 6 h
T1 construct: expressed in transfected cells; host or cells: HEK293T
T1 sequence (O43318 1-579 isoform O43318-2): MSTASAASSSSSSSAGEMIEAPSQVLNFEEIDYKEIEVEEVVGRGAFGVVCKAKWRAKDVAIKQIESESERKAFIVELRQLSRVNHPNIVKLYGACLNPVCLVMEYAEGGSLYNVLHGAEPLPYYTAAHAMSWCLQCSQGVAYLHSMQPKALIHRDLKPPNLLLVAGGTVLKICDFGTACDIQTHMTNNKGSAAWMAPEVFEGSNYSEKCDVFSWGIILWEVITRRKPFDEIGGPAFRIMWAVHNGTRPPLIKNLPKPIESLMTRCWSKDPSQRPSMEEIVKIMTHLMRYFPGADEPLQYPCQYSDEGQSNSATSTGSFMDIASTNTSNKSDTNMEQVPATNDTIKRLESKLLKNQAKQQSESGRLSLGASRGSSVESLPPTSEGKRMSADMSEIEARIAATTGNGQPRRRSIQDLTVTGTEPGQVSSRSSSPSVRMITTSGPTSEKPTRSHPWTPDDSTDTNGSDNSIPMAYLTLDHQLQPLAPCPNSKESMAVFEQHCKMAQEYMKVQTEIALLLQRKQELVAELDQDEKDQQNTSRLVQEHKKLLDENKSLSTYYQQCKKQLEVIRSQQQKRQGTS
Description: Fig. 4 RA-V blocks the interaction between TAK1 and TAB2. a RA-V blocked the exogenous TAK1–TAB2 interaction. HEK293T cells were transfected with Flag-TAK1 and HA-TAB2 for 24 h and then incubated with various concentrations of RA-V for 6 h. […] HEK293T cells were transfected with Flag-TAK1 and HA-TRAF6 or HA-TAB1 for 24 h and then incubated with RA-V (800 nM) for 6 h. The cell lysates were immunoprecipitated with HA antibody, and immunoblots were performed with the indicated antibodies. d RA-V blocked the endogenous TAK1–TAB2 interaction. HEK293T (left) or RAW264.7 (right) cells were incubated with 800 nM RA-V for 6 h and stimulated with 10 ng/mL TNF-α for 2 h or 1 μg/mL LPS for 3 h, respectively. The cell lysates were immunoprecipitated with TAK1 antibody or control IgG and then immunoblotted with the indicated antibodies. Each experiment was repeated at least three times
The cell lysates were prepared using radioimmunoprecipitation (RIPA) buffer containing 50 mM Tris-HCl pH 7.4, 150 mM NaCl, 1 mM ethylenediaminetetraacetic acid, 1% Triton X-100, 0.5% deoxycholate, and 0.1% sodium dodecyl sulfate, to which protease inhibitors (Roche) were added. The lysates were incubated with the indicated antibodies before adding 20 μL of Protein A/G agarose for 2 h. After four washes with the same buffer, the immunoprecipitates were boiled in 2 × SDS loading buffer.

Substance: RA-V
- antiproliferative effect (MTT) (HEK293T and HeLa cells): only a slight antiproliferative effect
- TAK1–TRAF6 interaction (TAK1–TRAF6 interaction): does not disrupt
